Structures are written as SMILES.

This note sets out measurements from patent US6849578B1, “Selective herbicides based on 2,6-disubstituted pyridine derivatives” (Bayer Aktiengesellschaft, priority 1999, dated 2005).

Type in all cases: in vivo
In experiment [1] the test system is Avenua. The experiment can be described thus: Post-emergence greenhouse test, % damage. The note with it: after about 3 weeks. An excerpt:
(§1) The expected activity for a given combination of two herbicides can be calculated as follows (cf. COLBY, S. R.: “Calculating synergistic and antagonistic responses of herbicide combinations”, Weeds 15, pages 20-22, 1967): • If X=% damage by herbicide A (active compound of the formula (I) at an application rate of p kg/ha • and Y=% damage by herbicide B (active compound of the formula II) at an application rate of q kg/ha • and E=the expected damage of the herbicides A and B at application rates of p and q kg/ha, • then E=X+Y−(X*Y/100).
(§2) Customary formulations of the active compounds in question were used. Propoxycarbazone-sodium was used as 70 WG, flufenacet as 60 WG and picolinafen as 75 WG formulation. From the active compounds, an aqueous spray liquor containing 0.1% of the additive Renex-36 was prepared.
(§3) Test plants are grown in a greenhouse under controlled conditions (temperature and light conditions). When the plants have reached a height of 5 to 15 cm, they are sprayed with the test solution. The concentration of the spray liquor is chosen such that the particular amounts of active compound desired are applied in 500 l of water/ha.
(§4) After the spray treatment, the plant containers are stored in a greenhouse at constant light and temperature conditions.
(§5) After about 3 weeks, the degree of damage to the crop plants is rated in % damage in comparison to the development of the untreated control.
(§6) The figures denote: • 0%=no damage (like untreated control) • 100%=total destruction/damage

Experiment [2] concerns Stellaria. The experiment can be described thus: Outdoor trials in cereal, post-emergence spring, herbicidal activity. The note with it: about 8-10 weeks after application.
Source text: as §1
(§7) To examine a possible synergism, the compounds picolinafen and propoxycarbazone-sodium were tested under outdoor conditions in cereal against economically important weed grasses. The small-plot experiments were conducted on areas used for agricultural cultivation.
(§8) The active compounds were applied in spring by the post-emergence method and over the entire area, using spray application with a medium droplet size. To prepare an advantageous preparation of active compound, the active compounds were formulated as 70 WG (70% w/w water-dispersible powder) or 75 WG (75% w/w water-dispersible powder) and suspended in water. The spray liquor was then applied in a water application rate customarily used in practice.
(§9) About 8-10 weeks after the application of the spray liquor, the herbicidal activity was scored visually. The figures denote: • 0%=no herbicidal effect, • 100%=total destruction of the crop or the weeds.

For experiment [3], the system named is Matricaria ch. Described as above. The note with it: about 8-10 weeks after application.
Source text: as §1, §7, §8, §9

Experiment [4] concerns Matricaria in. Described as above. The note with it: about 8-10 weeks after application.
Source text: as §1, §7, §8, §9

The test system of experiment [5] is Galium. The experiment is described as above. The note with it: about 8-10 weeks after application.
Source text: as §1, §7, §8, §9

Experiment [6] deals with Lactuca. Described as above. The conditions noted are these: about 8-10 weeks after application.
Source text: as §1, §7, §8, §9

Experiment [7] relates to Legousia. The description is as above. The note with it: about 8-10 weeks after application.
Source text: as §1, §7, §8, §9

For experiment [8], the system named is Echinochloa. Kind of experiment: Post-emergence greenhouse test, % damage. The note with it: Table A-3, after about 3 weeks.
Source text: as §1, §2, §3, §4, §5, §6

The test system of experiment [9] is Digitaria. The experiment can be described thus: Post-emergence greenhouse test, % damage. The note with it: Table A-2, after about 3 weeks.
Source text: as §1, §2, §3, §4, §5, §6

Experiment [10] relates to Cassia. The experiment can be described thus: Post-emergence greenhouse test, % damage. The conditions noted are these: Table A-4, after about 3 weeks.
Source text: as §1, §2, §3, §4, §5, §6

Experiment [11] relates to Ipomoea. The experiment can be described thus: Post-emergence greenhouse test, % damage. The conditions noted are these: Table A-5, after about 3 weeks.
Source text: as §1, §2, §3, §4, §5, §6

For experiment [12], the system named is Viola. The experiment can be described thus: Post-emergence greenhouse test, % damage. The conditions noted are these: Table A-6, after about 3 weeks.
Source text: as §1, §2, §3, §4, §5, §6

Regarding `CCCOc1nn(C(=O)NS(=O)(=O)c2ccccc2C(=O)OC)c(=O)n1C.[Na]` [propoxycarbazone-sodium, methyl 2-[[[(4,5-dihydro-4-methyl-5-oxo-3-propoxy-1H-1,2,4-triazol-1-yl)carbonyl]-amino]-sulphonyl]-benzoate sodium salt], the Avenua observed turned out to be 50% in experiment [1] (15 g of ai/ha, Table A-7); 0% in experiment [1] (15 g of ai/ha, Table A-8); 0% in [1] (15 g of ai/ha, Table A-9); 50% in experiment [1] (30 g of ai/ha, Table A-7); 20% in experiment [1] (30 g of ai/ha, Table A-8); 0% in experiment [1] (30 g of ai/ha, Table A-9). In addition, the Avenua observed in experiment [1] (60 g of ai/ha, Table A-7) was 60%; in experiment [1] (60 g of ai/ha, Table A-9), 0%. Moreover, the Stellaria observed in experiment [2] (42 g of ai/ha) is given as 30%. Further, the “Matricaria ch. observed 1st location” value in experiment [3] (42 g of ai/ha) is 60%. Further, the “Matricaria ch. observed 2nd location” value in experiment [3] (42 g of ai/ha) was determined as 10%. In [4] (42 g of ai/ha), the Matricaria in. observed is 75%. For the same molecule, the Galium observed in [5] (42 g of ai/ha) was 0%. The Lactuca observed in experiment [6] (42 g of ai/ha) is 10%. The Legousia observed in experiment [7] (42 g of ai/ha) turned out to be 0%.
Take `CC(C)N(C(=O)COc1nnc(C(F)(F)F)s1)c1ccc(F)cc1` [flufenacet, N-isopropyl-N-(4-fluorophenyl)-(5-trifluoromethyl-1,3,4-thiadiazol-2-yl-oxy)-acetamide]: the Echinochloa observed in [8] (60 g of ai/ha) is 60%. In addition, the Digitaria observed in [9] (60 g of ai/ha) is 0%; in experiment [9] (125 g of ai/ha), 10%. Further, the Avenua observed came to 10% in [1] (30 g of ai/ha, Table A-1) and 10% in experiment [1] (60 g of ai/ha, Table A-1). The Cassia observed in [10] (125 g of ai/ha) is on record as 0%. Also, the Ipomoea observed in [11] (60 g of ai/ha) and in experiment [11] (125 g of ai/ha) was 30% in each case. Moreover, the Viola observed in [12] (60 g of ai/ha) is 0%.
`O=C(Nc1ccc(F)cc1)c1cccc(Oc2cccc(C(F)(F)F)c2)n1` [picolinafen, N-(4-fluorophenyl)-6-[3-(trifluoromethyl)phenoxy]-2-pyridinecarboxamide]: the Echinochloa observed in experiment [8] (8 g of ai/ha) was determined as 10%. For the same molecule, the Digitaria observed in experiment [9] (30 g of ai/ha) is 50%. The Avenua observed in [1] (8 g of ai/ha, Table A-1) was determined as 0%; in [1] (15 g of ai/ha, Table A-7) it was 10%; in experiment [1] (15 g of ai/ha, Table A-8) it was 0%; in experiment [1] (15 g of ai/ha, Table A-9), 70%; in experiment [1] (30 g of ai/ha, Table A-1), 20%; in experiment [1] (30 g of ai/ha, Table A-7), 20%. Moreover, the Avenua observed in experiment [1] (30 g of ai/ha, Table A-8) worked out at 20%; in [1] (30 g of ai/ha, Table A-9), 70%. In addition, the Cassia observed in experiment [10] (30 g of ai/ha) is recorded as 40%. The Ipomoea observed in experiment [11] (8 g of ai/ha), in experiment [11] (15 g of ai/ha) and in experiment [11] (30 g of ai/ha) was 70% throughout. The Viola observed in experiment [12] (8 g of ai/ha) is given as 90%. In [2] (75 g of ai/ha), the Stellaria observed was 20%. Besides, the “Matricaria ch. observed 1st location” value in [3] (75 g of ai/ha) turned out to be 0%. Further, the “Matricaria ch. observed 2nd location” value in experiment [3] (75 g of ai/ha) was determined as 0%. Moreover, in [4] (75 g of ai/ha), the Matricaria in. observed is given as 45%. The Galium observed in experiment [5] (75 g of ai/ha) was 30%. Besides, in experiment [6] (75 g of ai/ha), the Lactuca observed was determined as 0%. Besides, the Legousia observed in [7] (75 g of ai/ha) was 0%.
